Reference: US20260070922A1, “PYRAZOLE AND IMIDAZOLE DERIVATIVES AS DUAL OREXIN AND KAPPA-OPIOID RECEPTORS MODULATORS COMPOSITION, METHODS FOR TREATING NEUROLOGICAL AND PSYCHIATRIC DISORDERS” (HAGER BIOSCIENCES, LLC, priority 2022, published 2026)
pIC50, pKi: −log10 of the molar value.

Legend:
[1] = target: T1, human k-opioid receptor (kOR) (Homo sapiens, UniProt P41145); experiment: Human k-opioid (KOP) receptor (agonist radioligand [3H]U-69593) binding assay, transfected RBL cell membranes; settings: second value of IC50/Ki cell
T1 construct: expressed in transfected cells; host or cells: RBL cells (membrane homogenates)

[2] = target: T1, human k-opioid receptor (kOR); experiment: as above; settings: for pIC50: first value of IC50/Ki cell; for inhibition at 1 µM: read-out: KOR % Inh. @ 1 uM
How it was run: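 Membranes from transfected RBL cells (~80 μg protein) incubated 60 min at 22° C with 0.5 nM [3H]U-69593 in 50 mM Tris-HCl pH 7.4, 10 mM MgCl2, 1 mM EDTA. Nonspecific binding defined with 10 μM naloxone; filtration and scintillation counting. Values are percent inhibition of specific radioligand binding.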

[3] = target: T2, Orexin type 1 (OX1R) receptor (Homo sapiens, UniProt O43613); experiment: In vitro orexin antagonism assay: intracellular calcium measurement (FLIPR), orexin-A 3 nM as agonist; format: cell-based; settings: for inhibition at 1 µM: read-out: OX1R, % Inh. @ 1 uM; for pIC50: first value of IC50/Kb cell; for Kb: second value of IC50/Kb cell
T2 construct: expressed in transfected cells; host or cells: CHO cells (G418 selection)
T2 sequence (O43613 1-425): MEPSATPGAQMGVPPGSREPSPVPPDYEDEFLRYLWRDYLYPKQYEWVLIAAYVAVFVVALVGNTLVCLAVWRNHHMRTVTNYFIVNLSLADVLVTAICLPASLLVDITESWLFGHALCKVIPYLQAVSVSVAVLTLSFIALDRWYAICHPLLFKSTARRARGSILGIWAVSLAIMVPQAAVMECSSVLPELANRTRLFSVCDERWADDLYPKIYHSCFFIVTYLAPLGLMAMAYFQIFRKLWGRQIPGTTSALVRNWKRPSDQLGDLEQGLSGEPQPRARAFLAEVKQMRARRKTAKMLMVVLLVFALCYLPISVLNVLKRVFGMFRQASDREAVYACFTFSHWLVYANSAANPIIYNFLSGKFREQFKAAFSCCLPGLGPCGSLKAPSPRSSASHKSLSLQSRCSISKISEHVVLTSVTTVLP
How it was run: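 CHO cells expressing the human orexin receptor were loaded with 3 μM fluo-4 AM plus 5 mM probenecid, then exposed to antagonist for 120 min before 3 nM orexin-A (final) was added on a FLIPR.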

[4] = target: T3, human orexin-2 receptor (OX2R) (Homo sapiens, UniProt O43614); experiment: as above; format: cell-based; settings: for inhibition at 1 µM: read-out: OX2R, % Inh. @ 1 uM; for Kb: second value of IC50/Kb cell; for pIC50: first value of IC50/Kb cell
T3 construct: expressed in transfected cells; host or cells: CHO cells (G418 selection)
T3 sequence (O43614 1-444): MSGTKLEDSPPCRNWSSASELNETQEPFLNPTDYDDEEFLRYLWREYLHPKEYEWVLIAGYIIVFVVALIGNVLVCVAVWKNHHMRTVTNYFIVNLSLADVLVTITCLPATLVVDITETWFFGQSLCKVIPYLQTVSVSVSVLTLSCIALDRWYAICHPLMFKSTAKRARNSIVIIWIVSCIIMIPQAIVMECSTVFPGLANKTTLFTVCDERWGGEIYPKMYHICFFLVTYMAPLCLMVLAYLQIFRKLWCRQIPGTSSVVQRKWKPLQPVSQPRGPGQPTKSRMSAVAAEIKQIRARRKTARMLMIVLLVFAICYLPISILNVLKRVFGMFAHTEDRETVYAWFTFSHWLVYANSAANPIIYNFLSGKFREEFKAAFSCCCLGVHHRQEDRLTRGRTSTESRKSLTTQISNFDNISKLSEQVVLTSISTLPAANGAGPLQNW
How it was run: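 CHO cells stably expressing human OX1R or OX2R, loaded with fluo-4 AM (3 μM, 5 mM probenecid) for 50 min at 37 °C, then 30 min at RT. Antagonist preincubated 120 min before 3 nM orexin-A; FLIPR fluorescence peak height vs vehicle gives IC50, possibly normalized to on-plate reference; geometric mean of repeats.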

T1 sequence (P41145 whole entry): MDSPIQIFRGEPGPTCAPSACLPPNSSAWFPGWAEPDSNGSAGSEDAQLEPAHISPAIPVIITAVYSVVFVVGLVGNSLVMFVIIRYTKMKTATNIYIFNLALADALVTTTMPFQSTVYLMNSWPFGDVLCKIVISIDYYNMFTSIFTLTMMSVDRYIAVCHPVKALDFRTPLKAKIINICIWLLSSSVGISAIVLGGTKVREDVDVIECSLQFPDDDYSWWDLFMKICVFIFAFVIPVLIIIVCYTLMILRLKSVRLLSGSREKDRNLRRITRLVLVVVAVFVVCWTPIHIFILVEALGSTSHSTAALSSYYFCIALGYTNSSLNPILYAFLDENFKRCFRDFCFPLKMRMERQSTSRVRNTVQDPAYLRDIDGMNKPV

Row | Structure (SMILES) | pKi [1] | pIC50 [2] | inhibition at 1 µM [2] [%] | inhibition at 1 µM [3] [%] | inhibition at 1 µM [4] [%] | pIC50 [3] | Kb [3] [nM] | Kb [4] [nM] | pIC50 [4] | KOR % Inh. @ 1 uM ([2]; @ 1 uM) [%] | OX1R, % Inh. @ 1 uM ([3]; @ 1 uM) [%] | OX2R, % Inh. @ 1 uM ([4]; @ 1 uM) [%]
1 | CCc1cnc(NC[C@@H]2[C@H](C)CCCN2C(=O)c2c(-c3ccccc3)nn3ccccc23)nc1 [Example 4] | 6.07 | 5.81 | 52 |  |  |  |  |  |  |  |  | 
2 | C[C@@H]1CCCN(C(=O)c2c(-c3ccccc3)nn3c2COCC3)[C@@H]1CNc1ccc(C(F)(F)F)cn1 [Example 7] | 6.10 | 5.83 | 35 |  |  |  |  |  |  |  |  | 
3 | C[C@@H]1CCCN(C(=O)c2c(-c3ccccc3)nc3ccccn23)[C@@H]1CNc1ccc(C(F)(F)F)cn1 [Example 8] | 5.97 | 5.70 | 38 | 100 | 21.4 |  |  |  |  |  |  | 
4 | O=C(c1c(-c2ccccc2)nn2ccccc12)N1CCC[C@H]1CNc1ccc(C(F)(F)F)cn1 [Example 10] | 5.48 | 5.21 | 26 |  |  | 8.40 | 1 |  |  |  |  | 
5 | O=C(c1c(-c2ccccc2)nn2ccccc12)N1CCC[C@H]1Cn1ccc(-c2ccccc2)n1 [Example 13] | 6.26 | 6.00 | 56 |  | 98.5 |  |  | 10 |  |  |  | 
6 | O=C(c1c(-c2ccccc2)nn2ccccc12)N1CCC[C@H]1COc1ccc(C(F)(F)F)cn1 [Example 20] | 5.72 | 5.46 | 33 |  |  |  |  |  |  |  |  | 
7 | O=C(c1c(-c2ccccc2)nn2ccccc12)N1CCCC[C@H]1COc1ccc(C(F)(F)F)cn1 [Example 24] | 6.20 | 5.96 | 52 | 98 | 60.1 | 8.30 | 1 |  |  |  |  | 
8 | O=C(c1c(-c2ccccn2)nn2ccccc12)N1CCC[C@H]1Cc1nc(-c2ccccn2)no1 [Example 156] |  |  | 6 | 97 | 50 | 7.64 | 5 |  |  |  |  | 
9 | C[C@@]1(COc2ccc(C(F)(F)F)cn2)CCCN1C(=O)c1nn2c(c1-c1ccccc1)OCCC2 [Example 157] |  |  | 7 | 100 | 16 | 6.72 | 39 |  |  |  |  | 
10 | C[C@@]1(COc2ccc(C(F)(F)F)cn2)CCCN1C(=O)c1c(-c2ccccc2)nn2cccnc12 [Example 158] |  |  | 2 | 93 | 46 | 6.92 | 26 |  |  |  |  | 
11 | [2H]C1([2H])CC[C@@]([2H])(COc2ccc(C(F)(F)F)cn2)N1C(=O)c1nn2c(c1-c1ccccc1)COCC2 [Example 171] |  |  | 0 | 100 | 26 | 8.00 | 2 |  |  |  |  | 
12 | O=C(c1nn2ccccc2c1-c1ccccn1)N1CCC[C@H]1COc1ccc(C(F)(F)F)cn1 [Example 172] |  |  | 4 | 100 | 40 |  |  |  |  |  |  | 
13 | O=C(c1nn2ccccc2c1-c1ccccn1)N1CCC[C@H]1Cn1cc(-c2ccccn2)cn1 [Example 173] |  |  | 3 | 100 | 82 | 8.10 | 2 | 45 | 6.59 |  |  | 
14 | O=C(c1nn2ccccc2c1-c1ccccn1)N1CCC[C@H]1Cn1ccc(-c2ccccn2)n1 [Example 174] |  |  | 0 | 100 | 56 | 8.30 | 0.9 |  |  |  |  | 
15 | [2H]C1([2H])CC[C@@]([2H])(Cn2ccc(-c3ccc(F)cc3)n2)N1C(=O)c1c(-c2ncccn2)nn2ccccc12 [Example 178] |  |  | 53 | 92 | 95 | 8.40 | 0.8 | 3 | 7.82 |  |  | 
16 | O=C(c1nc2ccccn2c1-c1ccccn1)N1CCC[C@H]1Cn1cc(-c2ccccn2)cn1 [Example 181] |  |  | 0 | 91 | 39 | 7.40 | 9 |  |  |  |  | 
17 | O=C(c1nn2ccccc2c1-c1ccccn1)N1CCC[C@H]1Cn1cc(-c2ccc(F)cn2)cn1 [Example 183] |  |  | 0 | 94 | 67 | 7.42 | 9 |  |  |  |  | 
18 | O=C(c1nn2cccnc2c1-c1ccccn1)N1CCC[C@H]1Cn1cc(-c2ccccn2)cn1 [Example 186] |  |  | 3 | 86 | 65 | 7.68 | 4 |  |  |  |  | 
19 | O=C(c1nn2cccnc2c1-c1ccccn1)N1C(Cn2ccc(-c3ccc(F)cn3)n2)C[C@@H]2C[C@@H]21 (stereo partly shown) [Example 187] |  |  | 0 | 100 | 34 | 7.85 | 3 |  |  |  |  | 
20 | O=C(c1nn2cccnc2c1-c1ccccn1)N1CCC[C@H]1Cn1cc(-c2ccc(F)cn2)cn1 [Example 194] |  |  | 0 | 89 | 82 |  |  | 31 | 6.74 |  |  | 
21 | O=C(c1nn2c(c1-c1ccccn1)OCCC2)N1CCC[C@H]1Cn1cc(-c2ccccn2)cn1 [Example 197] |  |  | 2 | 97 | 39 | 7.51 | 7 |  |  |  |  | 
22 | O=C(c1nn2c(c1-c1ccccn1)COCC2)N1CCC[C@H]1Cn1cc(-c2ccc(F)cn2)cn1 [Example 198] |  |  |  |  |  | 6.85 | 29 |  |  | 8 | 84 | 50
23 | O=C(c1nn2c(c1-c1ccccn1)OCCC2)N1[C@H](Cn2ccc(-c3ccc(F)cn3)n2)C[C@@H]2C[C@@H]21 [Example 202] |  |  | 3 | 87 | 14 | 7.19 | 14 |  |  |  |  | 
24 | O=C(c1nc2ccccn2c1-c1ccccn1)N1CCC[C@H]1Cn1cc(-c2ccc(F)cn2)cn1 [Example 208] |  |  | 0 | 100 | 52 | 7.41 | 8 |  |  |  |  | 
